We go through 25 molecules from US9481677B2, “Biaryl ether sulfonamides and their use as therapeutic agents” (XENON PHARMACEUTICALS INC., priority 2011, dated 2016).

SMILES strings stand for the structures.

Chain of Nav1.7 (Q15858 other isoform, or with tags, fused parts or gaps): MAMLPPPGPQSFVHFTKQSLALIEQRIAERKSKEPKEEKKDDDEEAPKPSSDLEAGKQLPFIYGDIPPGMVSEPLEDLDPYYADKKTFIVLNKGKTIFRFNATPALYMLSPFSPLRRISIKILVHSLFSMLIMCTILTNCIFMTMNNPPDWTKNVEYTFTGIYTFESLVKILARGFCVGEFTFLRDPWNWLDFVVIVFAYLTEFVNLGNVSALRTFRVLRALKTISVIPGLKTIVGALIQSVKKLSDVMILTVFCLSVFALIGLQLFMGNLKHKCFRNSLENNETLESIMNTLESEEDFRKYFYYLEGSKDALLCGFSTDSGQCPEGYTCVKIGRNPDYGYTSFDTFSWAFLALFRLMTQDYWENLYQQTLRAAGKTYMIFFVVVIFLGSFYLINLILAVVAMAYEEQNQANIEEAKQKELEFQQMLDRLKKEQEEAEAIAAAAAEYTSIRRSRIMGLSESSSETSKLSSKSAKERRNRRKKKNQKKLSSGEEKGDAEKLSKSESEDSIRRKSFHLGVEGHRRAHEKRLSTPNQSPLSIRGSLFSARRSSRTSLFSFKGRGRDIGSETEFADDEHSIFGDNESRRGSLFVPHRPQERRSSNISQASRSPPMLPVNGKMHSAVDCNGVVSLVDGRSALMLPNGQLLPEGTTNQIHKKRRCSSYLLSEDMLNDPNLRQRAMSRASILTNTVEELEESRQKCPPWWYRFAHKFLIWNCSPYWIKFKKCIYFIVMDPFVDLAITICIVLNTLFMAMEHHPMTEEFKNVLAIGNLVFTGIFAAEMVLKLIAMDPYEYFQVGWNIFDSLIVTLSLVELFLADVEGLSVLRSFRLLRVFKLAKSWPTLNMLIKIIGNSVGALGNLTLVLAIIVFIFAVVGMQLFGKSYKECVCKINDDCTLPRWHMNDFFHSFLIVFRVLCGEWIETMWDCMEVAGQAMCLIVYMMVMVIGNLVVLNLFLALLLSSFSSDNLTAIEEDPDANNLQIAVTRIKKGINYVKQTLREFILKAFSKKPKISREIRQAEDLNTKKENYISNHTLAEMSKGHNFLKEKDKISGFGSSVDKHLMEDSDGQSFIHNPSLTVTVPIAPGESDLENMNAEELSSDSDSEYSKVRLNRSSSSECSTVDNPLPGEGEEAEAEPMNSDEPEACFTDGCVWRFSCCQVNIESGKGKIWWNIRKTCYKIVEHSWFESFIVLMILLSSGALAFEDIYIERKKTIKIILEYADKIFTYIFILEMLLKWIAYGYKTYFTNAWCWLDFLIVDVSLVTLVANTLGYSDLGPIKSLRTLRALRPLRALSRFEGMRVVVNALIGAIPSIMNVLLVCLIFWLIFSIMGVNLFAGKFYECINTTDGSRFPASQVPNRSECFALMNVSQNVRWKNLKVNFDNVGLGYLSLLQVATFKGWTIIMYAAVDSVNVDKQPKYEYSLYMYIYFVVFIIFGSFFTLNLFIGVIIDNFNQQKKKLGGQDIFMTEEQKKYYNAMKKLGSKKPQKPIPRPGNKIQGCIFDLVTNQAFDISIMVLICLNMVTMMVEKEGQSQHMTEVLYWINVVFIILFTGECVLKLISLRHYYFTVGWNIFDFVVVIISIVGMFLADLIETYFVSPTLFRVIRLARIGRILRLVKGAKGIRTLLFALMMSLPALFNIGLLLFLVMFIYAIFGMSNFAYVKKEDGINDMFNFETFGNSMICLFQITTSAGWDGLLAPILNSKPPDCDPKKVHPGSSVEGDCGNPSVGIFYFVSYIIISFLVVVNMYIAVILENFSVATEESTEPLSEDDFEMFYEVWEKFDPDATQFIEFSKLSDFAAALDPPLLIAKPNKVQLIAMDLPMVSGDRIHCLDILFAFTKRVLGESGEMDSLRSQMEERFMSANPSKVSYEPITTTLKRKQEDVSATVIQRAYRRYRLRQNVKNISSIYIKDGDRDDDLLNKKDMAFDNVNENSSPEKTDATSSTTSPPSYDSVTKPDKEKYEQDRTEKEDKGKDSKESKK
Chain of Nav1.7 (Q07699 19-218 partner): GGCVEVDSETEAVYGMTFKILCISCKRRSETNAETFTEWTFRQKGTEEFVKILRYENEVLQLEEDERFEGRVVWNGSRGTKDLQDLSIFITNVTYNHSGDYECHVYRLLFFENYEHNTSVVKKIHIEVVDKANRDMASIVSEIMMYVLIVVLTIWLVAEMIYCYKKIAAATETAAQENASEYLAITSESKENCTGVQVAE

The assay concerns the target Nav1.7 (Homo sapiens (Human), UniProt Q15858). Kind of assay: Patch voltage clamp electrophysiology, block of inactivated-state Nav1.7 in HEK-293 cells. The assay is classed as cell-based. The following applies: affinity for the inactivated state; HEK-293 cells with β1 subunit; held at -60 mV; read-out: NaV1.7 (IC50 class). On the procedure:
Patch voltage clamp electrophysiology allows for the direct measurement and quantification of block of voltage-gated sodium channels (Nav's), and allows the determination of the time- and voltage-dependence of block which has been interpreted as differential binding to the resting, open, and inactivated states of the sodium channel (Hille, B., Journal of General Physiology (1977), 69: 497-515).
The following patch voltage clamp electrophysiology studies were performed on representative compounds of the invention using human embryonic kidney cells (HEK), permanently transfected with an expression vector containing the full-length cDNA coding for the desired human sodium channel α-subunit, grown in culture media containing 10% FBS, 1% PSG, and 0.5 mg/mL G418 at 37° C. with 5% CO2. […] Nav1.7 and Nav1.5 cDNAs (NM_002977 and AC137587; SCN5A, respectively) were stably expressed in HEK-293 cells. The β1 subunit was coexpressed only in the Nav1.7 cell line.
Sodium currents were measured using the patch clamp technique in the whole-cell configuration using either a PatchXpress automated voltage clamp or manually using an Axopatch 200B (Axon Instruments) or Model 2400 (A-M systems) amplifier. […] The pipette was filled with a solution comprised of: 5 mM NaCl, 10 mM CsCl, 120 mM CsF, 0.1 mM CaCl2, 2 mM MgCl2, 10 mM HEPES, 10 mM EGTA; and adjusted to pH 7.2 with CsOH. The external solution had the following composition: 140 mM NaCl, 5 mM KCl, 2 mM CaCl2, 1 mM MgCl2, 10 mM HEPES; and adjusted to pH 7.4 with NaOH. In some studies, the external sodium was reduced by equimolar replacement with choline. Osmolarity in the CsF internal and NaCl external solutions was adjusted to 300 mOsm/kg and 310 mOsm/kg with glucose, respectively. All recordings were performed at ambient temperature in a bath chamber with a volume of 150 μL. Control sodium currents were measured in 0.5% DMSO. Controls and representative compounds of the invention were applied to the recording chamber through a 4-pinch or 8-pinch valve bath perfusion system manufactured by ALA Scientific Instruments.
Currents were recorded at 40 kHz sampling frequency, filtered at […], and stored using a Digidata-1322A analogue/digital interface with the pClamp software (Axon Instruments). Series resistance compensation was applied (60-80%). […] All statistics in this study are given as mean±SD.
The membrane potential was maintained at a voltage where inactivation of the channel is complete (which was −60 mV for both Nav1.7 and Nav1.5). The voltage is then stepped back to a very negative (Vhold=−150 mV) voltage for 20 ms and then a test pulse is applied to quantify the compound block. […] The percent decrease in sodium current following wash-on of compound was taken as the percent block of sodium channels.
The Example numbers provided in Table 1 and Table 2 correspond to the Examples herein.
For the molecule `O=c1[nH]c2ccc(-c3cc(Cl)ccc3Oc3cc(F)c(S(=O)(=O)Nc4ncns4)cc3F)cc2o1` [Example 53, 4-(4-chloro-2-(2-oxo-2,3-dihydrobenzo[d]oxazol-6-yl)phenoxy)-2,5-difluoro-N-(1,2,4-thiadiazol-5-yl)benzenesulfonamide], the IC50 (commonly the concentration that inhibits the measured activity by half) is no more than 100 nM.
In the case of `O=C1Cc2cc(-c3cc(Cl)ccc3Oc3cc(F)c(S(=O)(=O)Nc4ncns4)cc3F)ccc2N1` [Example 77, 4-(4-chloro-2-(2-oxoindolin-5-yl)phenoxy)-2,5-difluoro-N-(1,2,4-thiadiazol-5-yl)benzenesulfonamide], the half-maximal inhibitory concentration (IC50) is no more than 100 nM.
`O=c1[nH]cc(-c2cc(Cl)ccc2Oc2cc(F)c(S(=O)(=O)Nc3ncns3)cc2F)n2cncc12` [Example 35, 4-(4-chloro-2-(8-oxo-7,8-dihydroimidazo[1,5-a]pyrazin-5-yl)phenoxy)-2,5-difluoro-N-(1,2,4-thiadiazol-5-yl)benzenesulfonamide]: the IC50 was in the range of 100 to 1000 nM.
As for `O=c1[nH]c2ccc(-c3cc(Cl)ccc3Oc3cc(F)c(S(=O)(=O)Nc4ncns4)cc3F)cc2[nH]1` [Example 48, 4-(4-chloro-2-(2-oxo-2,3-dihydro-1H-benzo[d]imidazol-5-yl)phenoxy)-2,5-difluoro-N-(1,2,4-thiadiazol-5-yl)benzenesulfonamide], the figure is no more than 100 nM; as for `O=S(=O)(Nc1ncns1)c1cc(F)c(Oc2ccc(Cl)cc2-n2cnc3cncnc32)cc1F` [Example 40, 4-(4-chloro-2-(9H-purin-9-yl)phenoxy)-2,5-difluoro-N-(1,2,4-thiadiazol-5-yl)-benzenesulfonamide], 1000 to 10000 nM; as for `O=S(=O)(Nc1ncns1)c1cc(F)c(Oc2ccc(Cl)cc2-c2ccc3nccnc3c2)cc1F` [Example 59, 4-(4-chloro-2-(quinoxalin-6-yl)phenoxy)-2,5-difluoro-N-(1,2,4-thiadiazol-5-yl)benzenesulfonamide], no more than 100 nM.
Next, `Nc1noc2ccc(-c3cc(Cl)ccc3Oc3cc(F)c(S(=O)(=O)Nc4ncns4)cc3F)cc12` [Example 44, 4-(2-(3-aminobenzo[d]isoxazol-5-yl)-4-chlorophenoxy)-2,5-difluoro-N-(1,2,4-thiadiazol-5-yl)benzenesulfonamide]: no more than 100 nM.
As for `Nc1nc2cc(-c3cc(Cl)ccc3Oc3cc(F)c(S(=O)(=O)Nc4ncns4)cc3F)ccc2[nH]1` [Example 38, 4-(2-(2-amino-1H-benzo[d]imidazol-5-yl)-4-chlorophenoxy)-2,5-difluoro-N-(1,2,4-thiadiazol-5-yl)benzenesulfonamide], the figure is no more than 100 nM.
On to `O=c1[nH]c2cc(-c3cc(Cl)ccc3Oc3cc(F)c(S(=O)(=O)Nc4ncns4)cc3F)ccc2o1` [Example 52, 4-(4-chloro-2-(2-oxo-2,3-dihydrobenzo[d]oxazol-5-yl)phenoxy)-2,5-difluoro-N-(1,2,4-thiadiazol-5-yl)benzenesulfonamide], for which the 50% inhibitory concentration (IC50) was no more than 100 nM.
Turning to `Nc1noc2ccc(-c3cc(Cl)ccc3Oc3cc(F)c(S(=O)(=O)Nc4cscn4)cc3F)cc12` [Example 49, 4-(2-(3-aminobenzo[d]isoxazol-5-yl)-4-chlorophenoxy)-2,5-difluoro-N-(thiazol-4-yl)benzenesulfonamide], the IC50 is no more than 100 nM.
For the molecule `Nc1noc2ccc(-c3cc(F)ccc3Oc3cc(F)c(S(=O)(=O)Nc4ncns4)cc3F)cc12` [Example 80, 4-(2-(3-aminobenzo[d]isoxazol-5-yl)-4-fluorophenoxy)-2,5-difluoro-N-(1,2,4-thiadiazol-5-yl)benzenesulfonamide], the IC50 was no more than 100 nM.
With `O=S(=O)(Nc1ncns1)c1cc(F)c(Oc2ccc(Cl)cc2-c2ncc3cnccn23)cc1F` [Example 36, 4-(4-chloro-2-(imidazo[1,5-a]pyrazin-3-yl)phenoxy)-2,5-difluoro-N-(1,2,4-thiadiazol-5-yl)benzenesulfonamide], the concentration for half-maximal inhibition (IC50) was 1000 to 10000 nM.
For `O=S(=O)(Nc1ncns1)c1cc(F)c(Oc2ccc(Cl)cc2-c2ccc3[nH]cnc3c2)cc1F` [Example 73, 4-(2-(1H-benzo[d]imidazol-5-yl)-4-chlorophenoxy)-2,5-difluoro-N-(1,2,4-thiadiazol-5-yl)benzenesulfonamide], the IC50 was no more than 100 nM.
Regarding `NC(=O)c1cnc2ccc(-c3cc(Cl)ccc3Oc3cc(F)c(S(=O)(=O)Nc4ncns4)cc3F)cn12` [Example 46, 6-(2-(4-(N-(1,2,4-thiadiazol-5-yl)sulfamoyl)-2,5-difluorophenoxy)-5-chlorophenyl)imidazo[1,2-a]pyridine-3-carboxamide], the IC50 is no more than 100 nM.
Next, `O=S(=O)(Nc1ncns1)c1cc(F)c(Oc2ccc(Cl)cc2-c2ccnc3nccn23)cc1F` [Example 31, 4-(4-chloro-2-(imidazo[1,2-a]pyrimidin-5-yl)phenoxy)-2,5-difluoro-N-(1,2,4-thiadiazol-5-yl)benzenesulfonamide]: no more than 100 nM; `Nc1noc2ccc(-c3cc(Cl)ccc3Oc3cc(F)c(S(=O)(=O)Nc4ncccn4)cc3F)cc12` [Example 63, 4-(2-(3-aminobenzo[d]isoxazol-5-yl)-4-chlorophenoxy)-2,5-difluoro-N-(pyrimidin-2-yl)benzenesulfonamide]: no more than 100 nM; `Nc1n[nH]c2ccc(-c3cc(Cl)ccc3Oc3cc(F)c(S(=O)(=O)Nc4ncns4)cc3F)cc12` [Example 45, 4-(2-(3-amino-1H-indazol-5-yl)-4-chlorophenoxy)-2,5-difluoro-N-(1,2,4-thiadiazol-5-yl)benzenesulfonamide]: no more than 100 nM.
Take `CN(C)c1noc2ccc(-c3cc(Cl)ccc3Oc3cc(F)c(S(=O)(=O)Nc4ncns4)cc3F)cc12` [Example 98, 4-(4-chloro-2-(3-(dimethylamino)benzo[d]isoxazol-5-yl)phenoxy)-2,5-difluoro-N-(1,2,4-thiadiazol-5-yl)benzenesulfonamide]: the half-inhibitory concentration (IC50) was no more than 100 nM.
As for `Cc1ccc(Oc2cc(F)c(S(=O)(=O)Nc3ncns3)cc2F)c(-c2ccc3oc(=O)[nH]c3c2)c1` [Example 82, 2,5-difluoro-4-(4-methyl-2-(2-oxo-2,3-dihydrobenzo[d]oxazol-5-yl)phenoxy)-N-(1,2,4-thiadiazol-5-yl)benzenesulfonamide], the figure is no more than 100 nM; as for `Nc1noc2ccc(-c3ccccc3Oc3cc(F)c(S(=O)(=O)Nc4ncns4)cc3F)cc12` [Example 58, 4-(2-(3-aminobenzo[d]isoxazol-5-yl)phenoxy)-2,5-difluoro-N-(1,2,4-thiadiazol-5-yl)benzenesulfonamide], no more than 100 nM; as for `O=c1[nH]c2cc(-c3cc(Cl)ccc3Oc3ccc(S(=O)(=O)Nc4ncccn4)cc3F)ccc2o1` [Example 79, 4-(4-chloro-2-(2-oxo-2,3-dihydrobenzo[d]oxazol-5-yl)phenoxy)-3-fluoro-N-(pyrimidin-2-yl)benzenesulfonamide], no more than 100 nM.
As to `Nc1noc2ccc(-c3cc(Cl)ccc3Oc3ccc(S(=O)(=O)Nc4ncns4)c(F)c3F)cc12` [Example 65, 4-(2-(3-aminobenzo[d]isoxazol-5-yl)-4-chlorophenoxy)-2,3-difluoro-N-(1,2,4-thiadiazol-5-yl)benzenesulfonamide], the IC50 was no more than 100 nM.
For `Nc1noc2ccc(-c3cc(Cl)ccc3Oc3cc(F)c(S(=O)(=O)Nc4ncns4)c(F)c3)cc12` [Example 64, 4-(2-(3-aminobenzo[d]isoxazol-5-yl)-4-chlorophenoxy)-2,6-difluoro-N-(1,2,4-thiadiazol-5-yl)benzenesulfonamide], the 50% inhibitory concentration (IC50) was no more than 100 nM.
Regarding `O=S(=O)(Nc1ncns1)c1cc(F)c(Oc2ccc(Cl)cc2-c2ccc3[nH]c(C(F)(F)F)nc3c2)cc1F` [Example 54, 4-(4-chloro-2-(2-(trifluoromethyl)-1H-benzo[d]imidazol-5-yl)phenoxy)-2,5-difluoro-N-(1,2,4-thiadiazol-5-yl)benzenesulfonamide], the IC50 was no more than 100 nM.
Next, `O=S(=O)(Nc1ncns1)c1cc(F)c(Oc2ccc(Cl)cc2-c2cccc3nccn23)cc1F` [Example 30, 4-(4-chloro-2-(imidazo[1,2-a]pyridin-5-yl)phenoxy)-2,5-difluoro-N-(1,2,4-thiadiazol-5-yl)benzenesulfonamide]: no more than 100 nM.
